Reference: US20240216344A1, “THIAZOLIDINEDIONE ANALOGS FOR THE TREATMENT OF NAFLD AND METABOLIC DISEASES” (Cirius Therapeutics, Inc., priority 2019, published 2024)

Key:
[1] = system: 3-dimensional bioprinted human liver organoids; experiment: 3-dimensional bioprinted human liver organoids, fibrosis by collagen staining; type: cell-based; settings: added to the tissue medium
[2] = system: subjects with biopsy proven NASH with fibrosis and no cirrhosis; experiment: EMMINENCE Phase 2b trial, interim analysis at six months; type: in vivo, human; settings: for Peripheral edema present: 6 months
Description: Detailed Description: This is a randomized, double-blinded study of three doses of MSDC-0602K or placebo given orally once daily to subjects with biopsy proven NASH with fibrosis and no cirrhosis. Visits to the clinic will be at baseline, 1, 2, 3, 6, 9, and 12 months, with one 2-week follow-up visit. Safety will be assessed by monitoring of vital signs, 12 lead electrocardiogram (ECG), physical examinations, safety labs, and adverse events (AEs).
An interim analysis of the EMMINENCE Phase 2b trial was conducted in the first 328 subjects who reached their six-month follow-up visit. […] In the two highest dose groups, at least 50% of patients with elevated baseline Alanine transaminase (ALT) or Aspartate Aminotransferase (AST) improved into the normal range at six months, as shown in Table 3.
The subjects included in this interim analysis had significant liver disease, as established by liver biopsy, with an average NAS at baseline of 5.3. […] Overall, baseline characteristics were well-balanced across treatment groups.

[3] = system: patients with biopsy-proven NASH with fibrosis and no cirrhosis; experiment: EMMINENCE Phase 2b trial, safety and weight; type: in vivo
Method: The primary efficacy endpoint was assessed at 12 months. Clinic visits were conducted at baseline, 1, 2, 3, 6, 9, and 12 months, followed 2 weeks later by a safety visit.
Safety: Safety was evaluated by adverse event incidence, and changes in clinical laboratory values, vital signs, and ECG parameters. Major adverse cardiovascular events (MACE) including death, non-fatal myocardial infarction (MI), unstable angina (USA) hospitalization, hospital admission for heart failure (HF), or non-fatal ischemic stroke; liver events including ascites, hepatic encephalopathy, variceal hemorrhage, hepatocellular carcinoma (HCC), or liver transplant; severe hypoglycemia; and bone fracture requiring surgery or hospitalization were adjudicated by an independent physician.
Using a modified intent-to-treat approach, treated patients were included for analysis in their randomly-assigned treatment groups. Participation of sites with serious GCP or quality concerns were terminated and their data excluded from the analyses. Post-baseline measures through 14 days after the last study drug dose were included. […] The central histopathologist's re-read of baseline biopsies was used as baseline. Patients who no longer qualified on re-read were included in the analyses. […] Stratification-adjusted risk differences adjusted similarly are provided. The primary analyses included only observed data; sensitivity analyses included multiply-imputing missing follow-up and considering missing follow-up as a non-responder. Each active dose was compared to placebo regarding changes in NASH CRN scores using analysis of covariance with adjustment for age, sex, diabetes mellitus, Vitamin E≥400 IU, baseline fibrosis F1 versus F2/F3, and the baseline value. Changes in laboratory markers from baseline to 6 months and to 12 months were analyzed similarly.

## COc1cccc(C(=O)COc2ccc(CC3SC(=O)NC3=O)cc2)c1 (stereo not shown) [MSDC-0602K]
[1]
  effects of the nutrients (stellate cell activation, fibrosis by collagen staining): both prevented and reversed
[2]; 62.5 mg
  Peripheral edema present: 7.80%
[2]; 62.5 mg, six months
  Percentage of patients with high baseline ALT who returned to normal range: 29%
  Percentage of patients with high baseline AST who returned to normal range: 36%
[2]; 125 mg cohort, six months
  Placebo-corrected reduction in ALT: 14.3 U/L
  Placebo-corrected reduction in AST: 7.9 U/L
[2]; 125 mg
  Peripheral edema present: 13.50%
[2]; 125 mg, six months
  Percentage of patients with high baseline ALT who returned to normal range: 60%
  Percentage of patients with high baseline AST who returned to normal range: 50%
[2]; 250 mg cohort, six months
  Placebo-corrected reduction in ALT: 10.6 U/L
[2]; 250 mg cohort, six months, not significant
  Placebo-corrected reduction in AST: 4 U/L
[2]; 250 mg
  Peripheral edema present: 11.10%
[2]; 250 mg, six months
  Percentage of patients with high baseline ALT who returned to normal range: 56%
  Percentage of patients with high baseline AST who returned to normal range: 52%
[2]; all subjects, 125 mg and 250 mg doses, six months
  fasting glucose, HbA1c, insulin levels, and HOMA-IR: statistically significant improvements
[2]; all treatment cohorts, dose dependent, six months
  Adiponectin: increased significantly
[2]; placebo and all doses
  overall adverse event rates: similar
[2]; six months
  effect on lipids: neutral effect
[2]; two highest dose groups, six months
  patients with elevated baseline ALT or AST improved into the normal range: at least 50%
[2]; two lowest doses, six months
  C-Reactive Protein levels: decrease
[3]; 62.5 mg
  Non-cardiac chest pain (SAE): 1 patients
  Subjects with TEAEs Leading to Study Drug Discontinuation: 2 (2.0) n (%)
  Subjects with TEAEs Related to Study Drug: 22 (22.2) n (%)
  Subjects with TEAEs Related to Study Drug and Leading to Study Drug Discontinuation: 0 (0.0) n (%)
  Subjects with any Treatment-Emergent Adverse Event (TEAE): 78 (78.8) n (%)
  TESAE: General disorders and administration site conditions: 1 ( 1.0) n (%)
  TESAE: Non-cardiac chest pain: 1 ( 1.0) n (%)
  adverse events of edema: 6 patients
  fractures requiring hospitalization or surgery: 1 patients
  treatment discontinuation rate: 9.1%
  unadjusted median weight change: 0.82 kg
[3]; 125 mg
  Non-cardiac chest pain (SAE): 1 patients
  Subjects with TEAEs Leading to Study Drug Discontinuation: 3 (3.1) n (%)
  Subjects with TEAEs Related to Study Drug: 26 (26.5) n (%)
  Subjects with TEAEs Related to Study Drug and Leading to Study Drug Discontinuation: 1 (1.0) n (%)
  Subjects with any Treatment-Emergent Adverse Event (TEAE): 76 (77.6) n (%)
  TESAE: General disorders and administration site conditions: 2 (2.0) n (%)
  TESAE: Non-cardiac chest pain: 1 (1.0) n (%)
  adjudicated HF hospitalization: One
  adjudicated MACE: two
  adverse events of edema: 11 patients
  fractures requiring hospitalization or surgery: 1 patients
  treatment discontinuation rate: 12.2%
  unadjusted median weight change: 1.10 kg
  unrelated deaths: one
[3]; 250 mg
  Subjects with TEAEs Leading to Study Drug Discontinuation: 1 (1.0) n (%)
  Subjects with TEAEs Related to Study Drug: 25 (24.8) n (%)
  Subjects with TEAEs Related to Study Drug and Leading to Study Drug Discontinuation: 0 (0.0) n (%)
  Subjects with any Treatment-Emergent Adverse Event (TEAE): 77 (76.2) n (%)
  TESAE: General disorders and administration site conditions: 1 (1.0) n (%)
  TESAE: Non-cardiac chest pain: 0 (0.0) n (%)
  adjudicated severe hypoglycemia event: One
  adverse events of edema: 7 patients
  fractures requiring hospitalization or surgery: 2 patients
  treatment discontinuation rate: 12.9%
  unadjusted median weight change: 2.28 kg
[3]; 12 months daily oral
  tolerability: well tolerated
[3]; all groups
  adjudicated liver events: no adjudicated liver events occurred
